This passage reports EC50 results from US10946033B2, “2′-substituted-N6-substituted purine nucleotides for RNA virus treatment” (priority 2016, dated 2021).

A word on the EC50: it is the concentration giving half of the maximal effect.

The structures appear in SMILES notation. Like-named read-outs stand apart in the source and are kept apart here.

The subject of test [1] is Dengue virus type 2 (DENV-2). Put plainly: microbe, parasite or virus in culture. It is filed as cell-based. The note with it: read-out: DENV-2 EC50.
In the next test the test system is Yellow Fever (YFV). Description: microbe, parasite or virus in culture. It is filed as cell-based, Yellow Fever virus. The note with it: read-out: YFV EC50.
[2] abbreviates: Yellow fever virus, BHK-21, 144 h.

As for `C#C[C@@]1(F)[C@H](O)[C@@H](COP(=O)(N[C@@H](C)C(=O)OC(C)C)Oc2ccccc2)O[C@H]1n1cnc2c(N(C)C)nc(N)nc21` (mixture of isomers) [Compound 2, (2S)-Isopropyl 2-(((((2R,3R,4R,5R)-5-(2-amino-6-(dimethylamino)-9H-purin-9-yl)-4-ethynyl-4-fluoro-3-hydroxytetrahydrofuran-2-yl)methoxy)(phenoxy)phosphoryl)amino) propanoate], the half-maximal effective concentration (EC50) in test [1] (Dengue virus, DENV2, 144 h) amounted to 72.5 µM; with Yellow Fever (YFV) (setting [2]), 12.6 µM.

As to `CC(C)OC(=O)[C@H](C)N[P@](=O)(OC[C@H]1C(C)[C@@H](n2cnc3c(N)ncnc32)[C@H](O)[C@@H]1O)Oc1ccccc1` (stereo partly drawn) [Compound 204, (2S)-Isopropyl 2-(((S)-(((1R,3R,4S,5R)-3-(6-amino-9H-purin-9-yl)-4,5-dihydroxy-2-methylcyclopentyl)methoxy)(phenoxy)phosphoryl)amino)propanoate], the EC50 is > 2.1 µM in test [1] (Dengue virus, DENV2, 144 h) and > 2.1 µM in the test with Yellow Fever (YFV) (setting [2]). In the case of `CNc1nc(N)nc2c1ncn2[C@@H]1O[C@H](CO[P@@](=O)(N[C@@H](C)C(=O)OC(C)C)Oc2ccccc2)[C@@H](O)[C@@]1(C)F` [Compound 205, isopropyl ((((R,S)-(2R,3R,4R,5R)-5-(2-amino-6-(methylamino)-9H-purin-9-yl)-4-fluoro-3-hydroxy-4-methyltetrahydrofuran-2-yl)methoxy)-phenoxy-phosphoryl)-L-alaninate], the EC50 is 0.8 µM in test [1] (Dengue virus, DENV2, 144 h) and 1.2 µM in the test with Yellow Fever (YFV) (setting [2]). As to `C#C[C@@]1(F)[C@H](O)[C@@H](COP(=O)(N[C@@H](C)C(=O)OC(C)C)Oc2ccccc2)O[C@H]1n1cnc2c(NC)nc(N)nc21` (stereo partly drawn) [Compound 4, (2S)-Isopropyl 2-(((((2R,3R,4R,5R)-5-(2-amino-6-(methylamino)-9H-purin-9-yl)-4-ethynyl-4-fluoro-3-hydroxytetrahydrofuran-2-yl)methoxy)phenoxy)phosphoryl)-amino) Propanoate], the EC50 in test [1] worked out at 612 µM; with Yellow Fever (YFV) it was 7 µM. In the case of `CC1[C@@H](n2cnc3c(N)ncnc32)[C@H](O)[C@H](O)[C@H]1CO` (some centres unmarked) [Compound 206], the half-maximal effective concentration (EC50) came out at 1.83 µM in test [1] (Dengue virus, DENV2, 144 h) and 2.3 µM with Yellow Fever (YFV) (setting [2]). As for `C#C[C@@]1(F)[C@H](O)[C@@H](COP(=O)(N[C@@H](C)C(=O)OC(C)C)Oc2ccccc2)O[C@H]1n1cnc2c(NC3CC3)nc(N)nc21` (stereo partly drawn) [Compound 6, (2S)-Isopropyl 2-(((((2R,3R,4R,5R)-5-(2-amino-6-(cyclopropylamino)-9H-purin-9-yl)-4-ethynyl-4-fluoro-3-hydroxytetrahydrofuran-2-yl)methoxy)phenoxy)phosphoryl)amino) propanoate], the EC50 in test [1] came out at 42 µM.
